{"source": "patent US7135292B2", "about": "“Analysis and modification of gene expression in marine invertebrate cells” (Harbor Branch Oceanographic Institution, Inc., priority 2002, dated 2006)", "test_system": "Axinella corrugata cell cultures", "experiment": "Human-sequence microarray (Gene Filters) analysis of gene expression, PHA-treated vs untreated sponge cell cultures", "format": "cell-based", "source_text": "Sponge Cells. Cells were obtained from cryopreserved stocks at Harbor Branch Oceanographic Institution. All cells were derived from Axinella corrugata specimens collected in the waters of Florida, the Bahamas, and the Caribbean Sea, and were cryopreserved according to Pomponi et al. (Pomponi et al. 1997b supra). This sponge is relatively common and easy to collect, amenable to culture efforts, and produces the bioactive compound, stevensine, in vitro (Pomponi et al. 1997b supra). Enriched fractions of dissociated sponge cells were prepared, cryopreserved, and thawed according to previously published methods (Pomponi et al. 1997b supra). Cells were incubated at 22–25° C. in a growth medium consisting of a modified and supplemented commercial formulation (Willoughby and Pomponi 2000 supra). The length of the incubation period was based on my unpublished observation of elevated DNA and protein contents (9%, P=0.034, and 9%, P=0.038, respectively) in PHA-treated cultures, according to fluorescent assays of 6 replicate comparisons (Willoughby and Pomponi 2000 supra). Since the effects were observed between 6 and 18 hours after treatment, cells were cultured for 12-hour periods representing the center point of the period of observed changes. Two sets of cultures were incubated with approximately 2×10^8 cells per T-75 flask—a control set and an experimental set treated with 1.5% phytohemagglutinin (PHA) (Life Technologies, M-form).\nRNA Isolation. RNA isolation was performed on unrinsed, pelleted cells. Pellets were quickly frozen in a dry ice alcohol bath and stored at −70° C. until RNA isolation. The Qiagen RNeasy® protocol was used, with the following modifications. Samples were disrupted with a micropestle or homogenized by the rotor-stator method, using twice the recommended volume of lysis solution. Prior to column loading, samples were centrifuged through a Qiashredder® column to complete homogenization and remove insoluble material. Supernatant was collected for use in the rest of the protocol. During the first wash step, samples were incubated on the column with DNase 1 (Qiagen or Ambion) for 15 minutes. After the final wash, samples were incubated on the column with the RNase free elution water for 15 minutes prior to elution. Sub-samples were diluted 20× and quantified on a Genequant® spectrophotometer.\ncDNA Labeling. Sub-samples of the isolated total RNA (8 μl) were primed with oligo dT (10–20 mer) (Research Genetics, Inc.) for 10 minutes at 70° C., then briefly chilled on ice, followed by addition of 2 volumes of RT cocktail based upon the Life Technologies Superscript II® protocol (containing dATP, dGTP, dTTP, and α-^33P dCTP [NEN Easy Tides®, 3000 Ci/mmol]). The mixture was incubated for 90 minutes at 37° C., and diluted to 100 μl for purification on a Bio-Spin column (Boi-Rad) according to the Gene Filter® (Research Genetics, Inc.) recommended protocol. The resultant labeled probes were then denatured for 3 minutes in a boiling water bath prior to incorporation into the hybridization solution.\nMicroarrays. Research Genetics Gene Filters®, version 211, were employed in this study. These microarrays feature over 4000 distinct sequence-verified genes spotted onto a 5×7 cm nylon membrane. The DNA at each spot represents approximately 1 kb from the 3′ end of the gene. The microarrays also include spots of total genomic DNA (see FIG. 5). The 211 series is constructed from human sequences. A cross-referenced database listing of all the genes represented on the array is available at http://www.resgen.com. The 2 genes referenced in this work carry the I.M.A.G.E. Consortium (Lennon, G. G., C. Auffray, M. Polymeropoulos and M. B. Soares 1996, Genomics 33:151–152), Clone IDs 81408 (calcineurin B) and 858292 (cdc10).\nHybridization. […]", "data": [{"substance": "phytohemagglutinin [PHA]", "values": [{"measurement": "Ratio, Small inducible cytokine A11 (eotaxin)", "setting": "No. 56, PHA treated/untreated, 12 h", "result": 0.493}, {"measurement": "Ratio, Major histocompatibility complex, class II, DR beta 5", "setting": "No. 57, PHA treated/untreated, 12 h", "result": 0.255}, {"measurement": "Ratio, Evi-1", "setting": "No. 58, PHA treated/untreated, 12 h", "result": 0.159}, {"measurement": "Ratio, Homo sapiens thrombospondin 3 (THBS3) gene, complete cds", "setting": "No. 59, PHA treated/untreated, 12 h", "result": 0.019}, {"measurement": "Ratio, RhoE", "setting": "No. 60, PHA treated/untreated, 12 h", "result": 0.312}, {"measurement": "Ratio, Human bone morphogenetic protein-3b", "setting": "No. 61, PHA treated/untreated, 12 h", "result": 0.209}, {"measurement": "Ratio, Vitamin K-dependent gamma-B74carboxylase", "setting": "No. 62, PHA treated/untreated, 12 h", "result": 2.101}, {"measurement": "Ratio, Homo sapiens cdc14 homolog mRNA, complete cds", "setting": "No. 63, PHA treated/untreated, 12 h", "result": 11.905}, {"measurement": "Ratio, Homo sapiens, alpha-1 (VI) collagen", "setting": "No. 64, PHA treated/untreated, 12 h", "result": 2.509}, {"measurement": "Ratio, Homo sapiens BAI 3 mRNA, complete cds", "setting": "No. 65, PHA treated/untreated, 12 h", "result": 3.228}, {"measurement": "Ratio, Human TFIIB related factor hBRF (HBRF) mRNA, complete cds", "setting": "No. 66, PHA treated/untreated, 12 h", "result": 0.118}, {"measurement": "Ratio, Human capping protein alpha mRNA, partial cds", "setting": "No. 67, PHA treated/untreated, 12 h", "result": 2.650}, {"measurement": "Ratio, Human melanocyte-specific gene 1 (msg1) mRNA, complete cds", "setting": "No. 68, PHA treated/untreated, 12 h", "result": 0.390}, {"measurement": "Ratio, Ras-like protein TC21", "setting": "No. 69, PHA treated/untreated, 12 h", "result": 2.737}, {"measurement": "Ratio, Homo sapiens mRNA for inositol 1,4,5-trisphosphate 3-kinase isoenzyme, partial cds", "setting": "No. 70, PHA treated/untreated, 12 h", "result": 0.494}, {"measurement": "Ratio, Homo sapiens clone 23619 phosphoprotein mRNA, partial cds", "setting": "No. 71, PHA treated/untreated, 12 h", "result": 0.296}, {"measurement": "Ratio, Human lysosomal glycosylasparaginase (AGA) gene", "setting": "No. 72, PHA treated/untreated, 12 h", "result": 0.317}, {"measurement": "Ratio, COUP transcription factor", "setting": "No. 73, PHA treated/untreated, 12 h", "result": 0.080}, {"measurement": "Ratio, Human mRNA for prepro cortistatin like peptide, complete cds", "setting": "No. 74, PHA treated/untreated, 12 h", "result": 3.616}, {"measurement": "Ratio, Homo sapiens mRNA for repressor protein, partial cds", "setting": "No. 75, PHA treated/untreated, 12 h", "result": 0.483}, {"measurement": "Ratio, N-Terminal acetyltransferase complex ARD1 subunit homolog + B88", "setting": "No. 76, PHA treated/untreated, 12 h", "result": 0.275}, {"measurement": "Ratio, Human alpha-tubulin isotype H2-alpha gene, last exon", "setting": "No. 77, PHA treated/untreated, 12 h", "result": 0.264}, {"measurement": "Ratio, Human alpha-cardiac actin gene, 5′ flank and", "setting": "No. 78, PHA treated/untreated, 12 h", "result": 0.402}, {"measurement": "Ratio, Homo sapiens MAD-related gene SMAD7 (SMAD7) mRNA, complete cds", "setting": "No. 79, PHA treated/untreated, 12 h", "result": 3.829}, {"measurement": "Ratio, Human ETS2 oncogene", "setting": "No. 80, PHA treated/untreated, 12 h", "result": 2.260}, {"measurement": "Ratio, Human mRNA for alpha-catenin, complete cds", "setting": "No. 81, PHA treated/untreated, 12 h", "result": 0.147}, {"measurement": "Ratio, Human mRNA for TESK1, complete cds", "setting": "No. 82, PHA treated/untreated, 12 h", "result": 0.282}, {"measurement": "Ratio, Homo sapiens DnaJ protein (HSPF2) mRNA, complete cds", "setting": "No. 83, PHA treated/untreated, 12 h", "result": 0.206}, {"measurement": "Ratio, Keratin, type I cytoskeletal 20", "setting": "No. 84, PHA treated/untreated, 12 h", "result": 0.283}, {"measurement": "Ratio, Homo sapiens FMRFamide-related prepropeptide mRNA, complete cds", "setting": "No. 85, PHA treated/untreated, 12 h", "result": 2.156}, {"measurement": "Ratio, H. sapiens mRNA for p40", "setting": "No. 86, PHA treated/untreated, 12 h", "result": 7.841}, {"measurement": "Ratio, Homo sapiens mRNA for p115, complete cds", "setting": "No. 87, PHA treated/untreated, 12 h", "result": 0.477}, {"measurement": "Ratio, Factor VIII intron 22 protein", "setting": "No. 88, PHA treated/untreated, 12 h", "result": 0.490}, {"measurement": "Ratio, Human RNA polymerase II subunit hsRPB7 mRNA, complete cds", "setting": "No. 89, PHA treated/untreated, 12 h", "result": 0.441}, {"measurement": "Ratio, Homo sapiens mRNA for osteomodulin, complete cds", "setting": "No. 90, PHA treated/untreated, 12 h", "result": 0.354}, {"measurement": "Ratio, Hemoglobin zeta chain", "setting": "No. 91, PHA treated/untreated, 12 h", "result": 11.817}, {"measurement": "Ratio, Human cartilage-specific homeodomain protein Cart-1 mRNA, complete cds", "setting": "No. 92, PHA treated/untreated, 12 h", "result": 0.201}, {"measurement": "Ratio, Human cytochrome bc-1 complex core protein II mRNA, complete cds", "setting": "No. 93, PHA treated/untreated, 12 h", "result": 0.325}, {"measurement": "Ratio, H. sapiens mRNA for Ndr protein kinase", "setting": "No. 94, PHA treated/untreated, 12 h", "result": 0.435}, {"measurement": "Ratio, Human HEM45 mRNA, complete cds", "setting": "No. 95, PHA treated/untreated, 12 h", "result": 0.114}, {"measurement": "Ratio, C-1-tetrahydrofolate synthase, cytoplasmic", "setting": "No. 96, PHA treated/untreated, 12 h", "result": 2.966}, {"measurement": "Ratio, Homo sapiens mRNA for transducin (beta) like 1 protein", "setting": "No. 97, PHA treated/untreated, 12 h", "result": 0.091}, {"measurement": "Ratio, Human Bcl-2 related (Bfl-1) mRNA, complete cds", "setting": "No. 98, PHA treated/untreated, 12 h", "result": 0.472}, {"measurement": "Ratio, H. sapiens mRNA for InsP3 5-phosphatase", "setting": "No. 99, PHA treated/untreated, 12 h", "result": 0.215}, {"measurement": "Ratio, H. sapiens mRNA for 17-beta-hydroxysteroid dehydrogenase", "setting": "No. 100, PHA treated/untreated, 12 h", "result": 0.432}, {"measurement": "Ratio, Ubiquitin carboxyl-terminal hydrolase isozyme L3", "setting": "No. 101, PHA treated/untreated, 12 h", "result": 0.388}, {"measurement": "Ratio, Human putative tRNA synthetase-like protein mRNA, complete cds", "setting": "No. 102, PHA treated/untreated, 12 h", "result": 0.493}, {"measurement": "Ratio, Human galectin-4 (GAL4) mRNA, complete cds", "setting": "No. 103, PHA treated/untreated, 12 h", "result": 0.443}, {"measurement": "Ratio, Glycylpeptide N-tetradecanoyl transferase", "setting": "No. 104, PHA treated/untreated, 12 h", "result": 0.354}, {"measurement": "Ratio, H. sapiens LDLC mRNA", "setting": "No. 105, PHA treated/untreated, 12 h", "result": 0.395}, {"measurement": "Ratio, Human CREB-binding protein (CBP) mRNA, complete cds", "setting": "No. 106, PHA treated/untreated, 12 h", "result": 0.210}, {"measurement": "Ratio, Human enigma gene, complete cds", "setting": "No. 107, PHA treated/untreated, 12 h", "result": 0.496}, {"measurement": "Ratio, Human FEZ2 mRNA, partial cds", "setting": "No. 108, PHA treated/untreated, 12 h", "result": 0.283}, {"measurement": "calcineurin down-regulated by the PHA treatment (microarray)", "setting": "approximately", "result": "2–5 fold"}, {"measurement": "cdc10 up-regulated by the PHA treatment (microarray)", "setting": "approximately", "result": "2–5 fold"}]}]}
